The values that follow come from US20110034414A1, “FLUOROALKYLOXY ALKANES, PROCESS FOR PRODUCTION AND USES THEREOF” (AL.CHI.MI.A. S.R.L., priority 2008, published 2011).

Series [1] is described as follows: Clarity (solubility) of mixtures of fluoroalkyloxy alkane with silicone oil 1,000 cS. In kind it is physicochemical. Further details: key: ++: the mixture is clear after stirring at room temperature; +: the mixture is opalescent after stirring at room temperature, it becomes clear after heating at 37° C. The method, then:
Various mixtures comprising a fluoroalkyloxy alkane obtained according to Examples 1, 3 and 4 and a silicone oil having a viscosity of 1,000 cS (at 20° C.) were prepared.
Table 3 contains the amounts of fluoroalkyloxy alkane in the various mixtures (expressed as weight % on the total weight of the mixture), and the result in terms of clarity of the solution at different temperatures.

Series [2] can be described thus: Clarity (solubility) of mixtures of fluoroalkyloxy alkane with silicone oil 5,000 cS. In kind it is physicochemical. Further details: key: ++: the mixture is clear after stirring at room temperature; +: the mixture is opalescent after stirring at room temperature, it becomes clear after heating at 37° C. The protocol: Various mixtures comprising a fluoroalkyloxy alkane obtained according to Examples 1, 3 and 4 and a silicone oil having a viscosity of 5,000 cS (at 20° C.) were prepared.
Table 4 contains the amounts of fluoroalkyloxy alkane in the various mixtures (expressed as weight % on the total weight of the mixture), and the result in terms of clarity of the solution at different temperatures.

Setting [3] is: 33% by weight fluoroalkyloxy alkane in silicone oil 1,000 cS (at 20° C.).
Where [4] appears, read: 43% by weight fluoroalkyloxy alkane in silicone oil 1,000 cS (at 20° C.).
Setting [5] is: 50% by weight fluoroalkyloxy alkane in silicone oil 1,000 cS (at 20° C.).
[6] abbreviates: 60% by weight fluoroalkyloxy alkane in silicone oil 1,000 cS (at 20° C.).
The mark [7] stands for this setting: 90% by weight fluoroalkyloxy alkane in silicone oil 1,000 cS (at 20° C.).
Where [8] appears, read: 33% by weight fluoroalkyloxy alkane in silicone oil 5,000 cS (at 20° C.).
Where [9] appears, read: 43% by weight fluoroalkyloxy alkane in silicone oil 5,000 cS (at 20° C.).
Setting [10] is: 50% by weight fluoroalkyloxy alkane in silicone oil 5,000 cS (at 20° C.).
Where [11] appears, read: 60% by weight fluoroalkyloxy alkane in silicone oil 5,000 cS (at 20° C.).
The mark [12] stands for this setting: 90% by weight fluoroalkyloxy alkane in silicone oil 5,000 cS (at 20° C.).

Turning to `CCCOCCC(F)(F)C(F)(F)C(F)(F)C(F)(F)F` [CF3(CF2)3CH2CH2O(CH2)2CH3], the “clarity of the solution” value in series [1] (setting [3]), in series [1] (setting [4]), in series [1] (setting [5]), in series [1] (setting [6]), in series [1] (setting [7]) and in series [2] (setting [8]) was “++” in each case. In addition, the “clarity of the solution” value in series [2] (setting [9]), in series [2] (setting [10]), in series [2] (setting [11]) and in series [2] (setting [12]) was “++” throughout.
Consider `CCCCCOCCC(F)(F)C(F)(F)C(F)(F)C(F)(F)F` [CF3(CF2)3CH2CH2O(CH2)4CH3], for which the “clarity of the solution” value in series [1] (setting [3]), in series [1] (setting [4]), in series [1] (setting [5]), in series [1] (setting [6]), in series [1] (setting [7]) and in series [2] (setting [8]) was “++” in each case. For the same molecule, the “clarity of the solution” value in series [2] (setting [9]), in series [2] (setting [10]), in series [2] (setting [11]) and in series [2] (setting [12]) was “++” in each case.
As for `CCCCCOCCC(F)(F)C(F)(F)C(F)(F)C(F)(F)C(F)(F)C(F)(F)F` [CF3(CF2)5CH2CH2O(CH2)4CH3], the “clarity of the solution” value is reported as “++” in series [1] (20% by weight fluoroalkyloxy alkane in silicone oil 1,000 cS (at 20° C.)); “++” in series [1] (setting [3]); “+” in series [1] (setting [4]); “+” in series [1] (setting [5]); “++” in series [2] (20% by weight fluoroalkyloxy alkane in silicone oil 5,000 cS (at 20° C.)); “++” in series [2] (setting [8]). The “clarity of the solution” value in series [2] (setting [9]) and in series [2] (setting [10]) was “+” each time.
